Legend:
mALDH1a2 = biological target: T1, mALDH1a2 (Mus musculus, UniProt Q62148); experiment: biochemical; details: read-out: mAldhla2 IC50
T1 construct: pET-Aldh1a2 transformed BL21-DE3 cultures; cell extracts
T1 sequence (Q62148 1-518): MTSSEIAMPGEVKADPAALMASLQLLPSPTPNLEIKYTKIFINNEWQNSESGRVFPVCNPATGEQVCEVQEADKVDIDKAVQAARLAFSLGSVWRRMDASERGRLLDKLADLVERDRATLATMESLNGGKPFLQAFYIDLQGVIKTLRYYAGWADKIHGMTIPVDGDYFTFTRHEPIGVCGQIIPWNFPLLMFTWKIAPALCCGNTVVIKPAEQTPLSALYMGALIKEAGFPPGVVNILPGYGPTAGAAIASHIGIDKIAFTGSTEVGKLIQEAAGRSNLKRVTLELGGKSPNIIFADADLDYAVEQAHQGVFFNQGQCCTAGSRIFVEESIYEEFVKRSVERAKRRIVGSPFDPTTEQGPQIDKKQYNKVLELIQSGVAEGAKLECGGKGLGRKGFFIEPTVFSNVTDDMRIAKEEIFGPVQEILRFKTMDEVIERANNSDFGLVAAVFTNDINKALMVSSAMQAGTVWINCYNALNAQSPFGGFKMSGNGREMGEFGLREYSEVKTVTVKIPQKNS
Experimental: (§1) Biological Example 5C. Aldh1a2 Enzyme Inhibition Assay
(§2) Cell extracts were spun at 16000 x g for 5 minutes.
(§3) Recombinant enzyme and inhibitor added immediately before assay. Reaction rate measured by resorufin fluorescence. […]
(§4) Table 3B. IC50 values (nM) for inhibition of hALDH1a2 and mALDH1a2 of selected compounds

hALDH1a2 = biological target: T2, hALDH1a2 (Homo sapiens, UniProt O94788); experiment: biochemical; details: read-out: hAldhla2 IC50
T2 construct: pET-Aldh1a2 transformed BL21-DE3 cultures; cell extracts
T2 sequence (O94788 1-518): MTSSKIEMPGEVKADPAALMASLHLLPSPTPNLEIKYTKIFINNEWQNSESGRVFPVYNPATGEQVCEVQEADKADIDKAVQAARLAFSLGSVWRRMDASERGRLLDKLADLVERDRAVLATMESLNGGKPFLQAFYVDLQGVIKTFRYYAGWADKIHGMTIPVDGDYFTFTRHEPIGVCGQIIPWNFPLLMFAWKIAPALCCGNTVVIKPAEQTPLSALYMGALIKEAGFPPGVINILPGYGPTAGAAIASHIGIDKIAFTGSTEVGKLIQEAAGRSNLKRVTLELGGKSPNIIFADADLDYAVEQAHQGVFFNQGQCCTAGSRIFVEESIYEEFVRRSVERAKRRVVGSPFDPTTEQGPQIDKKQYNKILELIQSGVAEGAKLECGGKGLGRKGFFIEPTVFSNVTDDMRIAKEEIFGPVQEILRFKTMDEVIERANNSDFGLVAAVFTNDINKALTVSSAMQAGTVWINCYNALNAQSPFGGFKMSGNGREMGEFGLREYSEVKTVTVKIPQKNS
Experimental: as §1, §2, §3, §4

SMILES | IC50 (mALDH1a2) | IC50 (hALDH1a2)
O=C1CCc2cc(NC(=O)c3ccncc3)c(F)cc2N1 [compound 2] | 10 µM | > 10 µM
CCc1cnccc1CNc1cc2c(cc1F)NC(=O)CC2 [compound 3] | 3.33 µM | 4 µM
CCc1ccccc1C(=O)Nc1cc2c(cc1F)NC(=O)CC2 [compound 4] | 4 µM | 5 µM
CCCc1cnccc1C(=O)Nc1cc2c(cc1F)NC(=O)CC2 [compound 5] | 10 µM | 9 µM
CC(C)c1cnccc1C(=O)Nc1cc2c(cc1F)NC(=O)CC2 [compound 6] | 10 µM | > 10 µM
CC(C)Cc1cnccc1C(=O)Nc1cc2c(cc1F)NC(=O)CC2 [compound 7] | 9 µM | 3.5 µM
CCc1cnc(C)cc1C(=O)Nc1cc2c(cc1F)NC(=O)CC2 [compound 8] | 5 µM | 9 µM
Cc1ccc(C)c(CNc2ccc3c(c2)CCC(=O)N3)c1 [compound 10] | 3.5 µM | 9 µM
Cc1ccc(C(=O)Nc2ccc3c(c2)CCC(=O)N3)cc1C [compound 11] | > 10 µM | > 10 µM
Cc1ccc(C(=O)Nc2ccc3c(c2)CCC(=O)N3)c(C)c1 [compound 12] | > 10 µM | > 10 µM
Cc1ccccc1C(=O)Nc1ccc2c(c1)CCC(=O)N2 [compound 13] | 2.95 µM | 5 µM
O=C1CCc2cc(NCc3ccccc3)ccc2N1 [compound 14] | 10 µM | 10 µM
Cc1cnccc1C(=O)Nc1cc2c(cc1F)NC(=O)CC2 [compound 15] | 10 µM | 10 µM
Cc1cc(C(=O)Nc2cc3c(cc2F)NC(=O)CC3)ccn1 [compound 16] | 10 µM | 10 µM
O=C1CCc2cc(NCc3cc[nH]c3)c(F)cc2N1 [compound 17] | 10 µM | 10 µM
CCc1cnccc1C(=O)Nc1ccc2c(c1)CC(C)(C)C(=O)N2 [compound 18] | 1.74 µM | 2.13 µM
CCc1cnccc1C(=O)Nc1ccc2c(c1)C(C)(C)CC(=O)N2 [compound 19] | 1.05 µM | 0.65 µM
CCc1cnccc1C(=O)Nc1ccc2c(c1)CN(C)C(=O)N2 [compound 20] | > 100 µM | > 10 µM
Cc1cnccc1C(=O)Nc1ccc2c(c1)CCC(=O)N2 [compound 21] | 32 µM | 30 µM
O=C1CCc2cc(Nc3nccc4ccccc34)ccc2N1 [compound 22] | 25 µM | 20 µM
Cc1cc(C(=O)Nc2ccc3c(c2)CCC(=O)N3)ccn1 [compound 24] | 100 µM | 100 µM
Cc1cnccc1/C=C/c1ccc2c(c1)CCC(=O)N2 [compound 30] | 11.1 µM | 9 µM

SMILES | IC50 (mALDH1a2) | IC50 (hALDH1a2)
CCc1cnccc1/C=C/c1ccc2c(c1)CCC(=O)N2 [compound 33] | 0.143 µM | 0.258 µM
CC1(C)CC(=O)Nc2ccc(Nc3nccc4ccccc34)cc21 [compound 34] | 30.9 µM | 39.2 µM
O=C1CCc2cc(Nc3ccc4ccccc4n3)ccc2N1 [compound 35] | 0.1 µM | 0.148 µM
Cc1cc(C(=O)Nc2cc3c(cc2F)NC(=O)C(C)(C)C3)c(CC(C)C)cn1 [compound 37] | > 10 µM | > 10 µM
CCc1cnccc1C(=O)Nc1cc2c(cc1F)NC(=O)C(C)(C)C2 [compound 38] | > 10 µM | > 10 µM
CCc1cnccc1C(=O)Nc1cc2ccc(=O)[nH]c2cc1F [compound 39] | 8 µM | 3.5 µM
CCc1cnccc1C(=O)Nc1cc2c(cc1F)NC(=O)CC2(C)C [compound 40] | 3.33 µM | 1.04 µM
COc1cnccc1C(=O)Nc1cc2c(cc1F)NC(=O)C(C)(C)C2 [compound 41] | 11.1 µM | 9 µM
CCc1cc(C#N)ccc1C(=O)Nc1cc2c(cc1F)NC(=O)C(C)(C)C2 [compound 42] | 2.6 µM | 6.36 µM
CCc1cnccc1/C=C/c1ccc2c(c1)CC(C)(C)C(=O)N2 [compound 43] | 3 µM | 1.2 µM
CCc1cnccc1/C=C/c1cc2c(cc1F)NC(=O)CC2 [compound 45] | 3.33 µM | 0.293 µM
CC1(C)Cc2cc(Nc3ccc4ccccc4n3)ccc2NC1=O [compound 46] | 0.162 µM | 0.248 µM
O=C1CCc2cc(Nc3ccc4ccccc4n3)c(F)cc2N1 [compound 47] | 0.072 µM | 0.099 µM
CC1(C)Cc2cc(Nc3ccc4ccccc4n3)c(F)cc2NC1=O [compound 48] | 0.097 µM | 0.099 µM
CCc1c(C(=O)Nc2ccc3c(c2)CCC(=O)N3)cc[nH]c1=O [compound 50] | > 10 µM | > 10 µM
CCc1c[nH]c(=O)cc1C(=O)Nc1ccc2c(c1)CCC(=O)N2 [compound 51] | > 10 µM | > 10 µM
O=C1CCc2cc(NC(=O)c3ccnc4ccccc34)ccc2N1 [compound 52] | 0.117 µM | 0.32 µM
O=C1CCc2cc(NC(=O)c3ccncc3C(F)(F)F)ccc2N1 [compound 54] | 0.224 µM | 1.06 µM
CCc1c(C(=O)Nc2ccc3c(c2)CCC(=O)N3)ccnc1C [compound 55] | > 10 µM | > 10 µM
CCc1cnc(C)cc1C(=O)Nc1ccc2c(c1)CCC(=O)N2 [compound 56] | 1.26 µM | 10 µM
COCc1cnccc1C(=O)Nc1ccc2c(c1)CCC(=O)N2 [compound 57] | > 10 µM | > 10 µM
CN(C)Cc1cnccc1C(=O)Nc1ccc2c(c1)CCC(=O)N2 [compound 58] | > 10 µM | > 10 µM

SMILES | IC50 (mALDH1a2) | IC50 (hALDH1a2)
CCCc1cnccc1C(=O)Nc1ccc2c(c1)CCC(=O)N2 [compound 60] | 0.935 µM | 1.53 µM
CCc1cnccc1C(=O)Nc1ccc2c(c1)CC1(CC1)C(=O)N2 [compound 61] | 1.81 µM | 2.04 µM
CCc1cnccc1C(=O)Nc1ccc2c(c1)CC(C)(CC)C(=O)N2 (centres unmarked) [compound 62] | > 10 µM | > 10 µM
CCc1cnccc1C(=O)Nc1ccc2c(c1)CC(C)C(=O)N2 (centres unmarked) [compound 63] | 0.297 µM | 0.538 µM
CCc1cnccc1C(=O)Nc1ccc2c(c1)C(C)CC(=O)N2 (centres unmarked) [compound 64] | 5 µM | 2.79 µM
Cc1cc(C(=O)Nc2ccc3c(c2)CC2(CC2)C(=O)N3)c(Cl)cn1 [compound 68] | 3.44 µM | > 10 µM
CC(C)=Cc1cnc(C)cc1C(=O)Nc1ccc2c(c1)CC(C)(C)C(=O)N2 [compound 69] | > 10 µM | > 10 µM
CCc1cnccc1C(=O)Nc1cc2c(cc1Cl)NC(=O)CC2 [compound 70] | 2.96 µM | > 10 µM
C=CCc1cnccc1C(=O)Nc1ccc2c(c1)CCC(=O)N2 [compound 71] | 0.747 µM | 0.963 µM
CCc1cccnc1C(=O)Nc1cc2c(cc1Cl)NC(=O)CC2 [compound 72] | > 10 µM | > 10 µM
CCc1c[n+]([O-])ccc1C(=O)Nc1ccc2c(c1)CCC(=O)N2 [compound 73] | > 10 µM | > 10 µM
CCc1cc(=O)n(C)cc1C(=O)Nc1ccc2c(c1)CCC(=O)N2 [compound 76] | 4.31 µM | 6.56 µM
CCc1cnc(F)cc1C(=O)Nc1ccc2c(c1)CCC(=O)N2 [compound 78] | 0.366 µM | 0.46 µM
CCc1cnc(C)cc1C(=O)Nc1cc2c(cc1F)NC(=O)CC2 [compound 79] | 0.849 µM | 1.46 µM
CCc1cnc(Cl)cc1C(=O)Nc1cc2c(cc1F)NC(=O)CC2 [compound 80] | 0.324 µM | 0.384 µM
O=C1CCc2cc(NC(=O)c3ccncc3CC3CC3)c(F)cc2N1 [compound 81] | 0.522 µM | 0.376 µM
CCc1cnccc1C(=O)Nc1cc2c(cc1C#N)NC(=O)CC2 [compound 84] | > 10 µM | > 10 µM
N#Cc1cccc2nc(Nc3ccc4c(c3)CCC(=O)N4)ccc12 [compound 86] | 0.084 µM | 10 µM
Cc1cccc2nc(Nc3ccc4c(c3)CCC(=O)N4)ccc12 [compound 87] | 0.149 µM | 0.419 µM
N#Cc1ccc2nc(Nc3ccc4c(c3)CCC(=O)N4)ccc2c1 [compound 88] | > 10 µM | > 10 µM

Source: EP4803142A2 (Kayothera Inc., priority 2021, dated 2022)
